Reference: US8497240B2 (priority 2006, dated 2013)
Several values for one entry are separate records, joined by “and”; a condition that tells them apart may be missing. Equal values may be shown once.

Type: in vivo, NIH/Swiss mice
Conditions: 30 nmol/kg
Experimental: In FIG. 3A, bars represent mean±sd, n=6-10. […] Gavage (1.5 g/kg) was given at t=0, Sample was taken at t=30 min. […] In FIG. 3B, points represent mean±sem, n=8-15.
Peptide was injected IP at t=−5 minutes into 4-hour fasted NIH/Swiss female mice. […] In FIG. 17 points represent mean+/−sem. […] Samples were taken at t=60, t=120 and t=180.
With `CC[C@H](C)[C@H](NC(=O)[C@H](CO)NC(=O)[C@H](Cc1ccc(O)cc1)NC(=O)[C@H](CC(=O)O)NC(=O)[C@H](CO)NC(=O)[C@@H](NC(=O)[C@H](Cc1ccccc1)NC(=O)[C@@H](NC(=O)CNC(=O)[C@H](CCC(=O)O)NC(=O)[C@H](C)NC(=O)[C@H](Cc1ccc(O)cc1)NC(=O)[C@@H](N)CC(C)C)[C@@H](C)O)[C@@H](C)CC)C(=O)N[C@@H](C)C(=O)N[C@@H](CCSC)C(=O)N[C@@H](CC(=O)O)C(=O)N[C@@H](CCCCN)C(=O)N[C@H](C(=O)N[C@@H](Cc1c[nH]cn1)C(=O)N[C@@H](CCC(N)=O)C(=O)N[C@@H](CCC(N)=O)C(=O)N[C@@H](CC(=O)O)C(=O)N[C@@H](Cc1ccccc1)C(=O)N[C@H](C(=O)N[C@@H](CC(N)=O)C(=O)N[C@@H](Cc1c[nH]c2ccccc12)C(=O)N[C@@H](CC(C)C)C(=O)N[C@@H](CC(C)C)C(=O)N[C@@H](C)C(=O)N[C@@H](CCC(N)=O)C(=O)N[C@@H](CCCCN)C(=O)N1CCC[C@H]1C(=O)N[C@@H](CCCCN)C(=O)N[C@@H](CCCCN)C(=O)N[C@H](C(=O)N[C@@H](CCCNC(=N)N)C(=O)N[C@@H](Cc1ccc(O)cc1)C(=O)N[C@@H](CO)C(N)=O)[C@@H](C)CC)C(C)C)[C@@H](C)CC` [0601GIP4799] the “OGTT/GL (%)” value was −10, % and −10, 30%. With `CC[C@H](C)[C@H](NC(=O)[C@H](CO)NC(=O)[C@H](Cc1ccc(O)cc1)NC(=O)[C@H](CC(=O)O)NC(=O)[C@H](CO)NC(=O)[C@@H](NC(=O)[C@H](Cc1ccccc1)NC(=O)[C@@H](NC(=O)CNC(=O)[C@H](CCC(=O)O)NC(=O)[C@@H](CCC(=O)O)NC(=O)[C@@H](N)Cc1ccc(O)cc1)[C@@H](C)O)[C@@H](C)CC)C(=O)N[C@@H](C)C(=O)N[C@@H](CCSC)C(=O)N[C@@H](CC(=O)O)C(=O)N[C@@H](CCCCN)C(=O)N[C@H](C(=O)N[C@@H](Cc1c[nH]cn1)C(=O)N[C@@H](CCC(N)=O)C(=O)N[C@@H](CCC(N)=O)C(=O)N[C@@H](CC(=O)O)C(=O)N[C@@H](Cc1ccccc1)C(=O)N[C@H](C(=O)N[C@@H](CC(N)=O)C(=O)N[C@@H](Cc1c[nH]c2ccccc12)C(=O)N[C@@H](CC(C)C)C(=O)N[C@@H](CC(C)C)C(=O)N[C@@H](C)C(=O)N[C@@H](CCC(N)=O)C(=O)N[C@@H](CCCCN)C(=O)N1CCC[C@H]1C(=O)N[C@@H](CO)C(=O)N[C@@H](CO)C(=O)NCC(=O)N[C@@H](C)C(=O)N1CCC[C@H]1C(=O)N1CCC[C@H]1C(=O)N1CCC[C@H]1C(=O)N[C@@H](CO)C(N)=O)C(C)C)[C@@H](C)CC` [0601GIP4703] the “OGTT/GL (%)” value was −18, 30%. In the case of `CC[C@H](C)[C@H](NC(=O)[C@H](CO)NC(=O)[C@H](Cc1ccc(O)cc1)NC(=O)[C@H](CC(=O)O)NC(=O)[C@H](CO)NC(=O)[C@@H](NC(=O)[C@H](Cc1ccccc1)NC(=O)[C@@H](NC(=O)CNC(=O)[C@H](CCC(=O)O)NC(=O)[C@H](C)NC(=O)[C@@H](N)Cc1ccc(O)cc1)[C@@H](C)O)[C@@H](C)CC)C(=O)N[C@@H](C)C(=O)N[C@@H](CCSC)C(=O)N[C@@H](CC(=O)O)C(=O)N[C@@H](CCCCN)C(=O)N[C@H](C(=O)N[C@@H](Cc1c[nH]cn1)C(=O)N[C@@H](CCC(N)=O)C(=O)N[C@@H](CCC(N)=O)C(=O)N[C@@H](CC(=O)O)C(=O)N[C@@H](Cc1ccccc1)C(=O)N[C@H](C(=O)N[C@@H](CC(N)=O)C(=O)N[C@@H](Cc1c[nH]c2ccccc12)C(=O)N[C@@H](CC(C)C)C(=O)N[C@@H](CC(C)C)C(=O)N[C@@H](C)C(=O)N[C@@H](CCC(N)=O)C(=O)N[C@@H](CCCCN)C(=O)N1CCC[C@H]1C(=O)N[C@@H](CCCCN)C(=O)N[C@@H](CCCCN)C(=O)N[C@H](C(=O)N[C@@H](CCCNC(=N)N)C(=O)N[C@@H](Cc1ccc(O)cc1)C(=O)N[C@@H](CO)C(N)=O)[C@@H](C)CC)C(C)C)[C@@H](C)CC` [0601GIP4327], the “OGTT/GL (%)” value is reported as −7, 30%. With `CC[C@H](C)[C@H](NC(=O)[C@H](CO)NC(=O)[C@H](Cc1ccc(O)cc1)NC(=O)[C@H](CC(=O)O)NC(=O)[C@H](CO)NC(=O)[C@@H](NC(=O)[C@H](Cc1ccccc1)NC(=O)[C@@H](NC(=O)CNC(=O)[C@H](CC(=O)O)NC(=O)[C@H](C)NC(=O)[C@@H](N)Cc1ccc(O)cc1)[C@@H](C)O)[C@@H](C)CC)C(=O)N[C@@H](C)C(=O)N[C@@H](CCSC)C(=O)N[C@@H](CC(=O)O)C(=O)N[C@@H](CCCCN)C(=O)N[C@H](C(=O)N[C@@H](Cc1c[nH]cn1)C(=O)N[C@@H](CCC(N)=O)C(=O)N[C@@H](CCC(N)=O)C(=O)N[C@@H](CC(=O)O)C(=O)N[C@@H](Cc1ccccc1)C(=O)N[C@H](C(=O)N[C@@H](CC(N)=O)C(=O)N[C@@H](Cc1c[nH]c2ccccc12)C(=O)N[C@@H](CC(C)C)C(=O)N[C@@H](CC(C)C)C(=O)N[C@@H](C)C(=O)N[C@@H](CCC(N)=O)C(=O)N[C@@H](CCCCN)C(=O)N1CCC[C@H]1C(=O)N[C@@H](CCCCN)C(=O)N[C@@H](CCCCN)C(=O)N[C@H](C(=O)N[C@@H](CCCNC(=N)N)C(=O)N[C@@H](Cc1ccc(O)cc1)C(=O)N[C@@H](CO)C(N)=O)[C@@H](C)CC)C(C)C)[C@@H](C)CC` [Compound 0601GIP4390] the “OGTT/GL (%)” value was 1, 30%. In the case of `CC[C@H](C)[C@H](NC(=O)[C@H](CO)NC(=O)[C@H](Cc1ccc(O)cc1)NC(=O)[C@H](CC(=O)O)NC(=O)[C@H](CO)NC(=O)[C@@H](NC(=O)[C@H](Cc1ccccc1)NC(=O)[C@@H](NC(=O)CNC(=O)[C@H](CCC(=O)O)NC(=O)[C@@H](C)NC(=O)[C@H](Cc1ccc(O)cc1)NC(=O)OCC(C)C)[C@@H](C)O)[C@@H](C)CC)C(=O)N[C@@H](C)C(=O)N[C@@H](CCSC)C(=O)N[C@@H](CC(=O)O)C(=O)N[C@@H](CCCCN)C(=O)N[C@H](C(=O)N[C@@H](Cc1c[nH]cn1)C(=O)N[C@@H](CCC(N)=O)C(=O)N[C@@H](CCC(N)=O)C(=O)N[C@@H](CC(=O)O)C(=O)N[C@@H](Cc1ccccc1)C(=O)N[C@H](C(=O)N[C@@H](CC(N)=O)C(=O)N[C@@H](Cc1c[nH]c2ccccc12)C(=O)N[C@@H](CC(C)C)C(=O)N[C@@H](CC(C)C)C(=O)N[C@@H](C)C(=O)N[C@@H](CCC(N)=O)C(=O)N[C@@H](CCCCN)C(=O)N1CCC[C@H]1C(=O)N[C@@H](CO)C(=O)N[C@@H](CO)C(=O)NCC(=O)N[C@@H](C)C(=O)N1CCC[C@H]1C(=O)N1CCC[C@H]1C(=O)N1CCC[C@H]1C(=O)N[C@@H](CO)C(N)=O)C(C)C)[C@@H](C)CC` [Compound 0601GIP4180], the “OGTT/GL (%)” value is reported as −11, 30%. For `CC[C@H](C)[C@H](NC(=O)[C@H](CO)NC(=O)[C@H](Cc1ccc(O)cc1)NC(=O)[C@H](CC(=O)O)NC(=O)[C@H](CO)NC(=O)[C@@H](NC(=O)[C@H](Cc1ccccc1)NC(=O)[C@@H](NC(=O)CNC(=O)[C@H](CCC(=O)O)NC(=O)[C@H](C)NC(=O)[C@@H](N)Cc1ccc(O)cc1)[C@@H](C)O)[C@@H](C)CC)C(=O)N[C@@H](C)C(=O)N[C@@H](CCSC)C(=O)N[C@@H](CC(=O)O)C(=O)N[C@@H](CCCCN)C(=O)N[C@H](C(=O)N[C@@H](Cc1c[nH]cn1)C(=O)N[C@@H](CCC(N)=O)C(=O)N[C@@H](CCC(N)=O)C(=O)N[C@@H](CC(=O)O)C(=O)N[C@@H](Cc1ccccc1)C(=O)N[C@H](C(=O)N[C@@H](CC(N)=O)C(=O)N[C@@H](Cc1c[nH]c2ccccc12)C(=O)N[C@@H](CC(C)C)C(=O)N[C@@H](CC(C)C)C(=O)N[C@@H](C)C(=O)N[C@@H](CCC(N)=O)C(=O)N[C@@H](CCCCN)C(=O)N[C@H](C(=O)N[C@@H](CO)C(=O)N1CCC[C@H]1C(=O)N[C@@H](CCCNC(=N)N)C(=O)N1CCC[C@H]1C(=O)N1CCC[C@H]1C(=O)N[C@@H](CO)C(N)=O)[C@@H](C)O)C(C)C)[C@@H](C)CC` [0601GIP4328], the “OGTT/GL (%)” value was −2, 30%.

Same assay, conditions: 350 nmol/kg
For `CC[C@H](C)[C@H](NC(=O)[C@H](CO)NC(=O)[C@H](Cc1ccc(O)cc1)NC(=O)[C@H](CC(=O)O)NC(=O)[C@H](CO)NC(=O)[C@@H](NC(=O)[C@H](Cc1ccccc1)NC(=O)[C@@H](NC(=O)CNC(=O)[C@H](CCC(=O)O)NC(=O)[C@@H](C)NC(=O)[C@@H](N)Cc1ccc(O)cc1)[C@@H](C)O)[C@@H](C)CC)C(=O)N[C@@H](C)C(=O)N[C@@H](CCSC)C(=O)N[C@@H](CC(=O)O)C(=O)N[C@@H](CCCCN)C(=O)N[C@H](C(=O)N[C@@H](Cc1c[nH]cn1)C(=O)N[C@@H](CCC(N)=O)C(=O)N[C@@H](CCC(N)=O)C(=O)N[C@@H](CC(=O)O)C(=O)N[C@@H](Cc1ccccc1)C(=O)N[C@H](C(=O)N[C@@H](CC(N)=O)C(=O)N[C@@H](Cc1c[nH]c2ccccc12)C(=O)N[C@@H](CC(C)C)C(=O)N[C@@H](CC(C)C)C(=O)N[C@@H](C)C(=O)N[C@@H](CCC(N)=O)C(=O)N[C@@H](CCCCN)C(=O)N1CCC[C@H]1C(=O)N[C@@H](CO)C(=O)N[C@@H](CCCCN)C(=O)N[C@@H](CCC(=O)O)C(=O)N[C@H](C(=O)N[C@H](C(=O)N[C@@H](CO)C(N)=O)[C@@H](C)CC)[C@@H](C)CC)C(C)C)[C@@H](C)CC` [Compound 0601GIP4234], the “OGTT/GL (%)” value was −17%. For `CC[C@H](C)[C@H](NC(=O)[C@H](CCCCN)NC(=O)[C@H](CC(=O)O)NC(=O)[C@H](CCSC)NC(=O)[C@@H](NC(=O)[C@@H](NC(=O)[C@H](CO)NC(=O)[C@H](Cc1ccc(O)cc1)NC(=O)[C@H](CC(=O)O)NC(=O)[C@H](CO)NC(=O)[C@@H](NC(=O)[C@H](Cc1ccccc1)NC(=O)[C@@H](NC(=O)CNC(=O)[C@H](CCC(=O)O)NC(=O)[C@@H](C)NC(=O)[C@@H](N)Cc1ccc(O)cc1)[C@@H](C)O)[C@@H](C)CC)[C@@H](C)CC)[C@@H](C)O)C(=O)N[C@@H](Cc1c[nH]cn1)C(=O)N[C@@H](CCC(N)=O)C(=O)N[C@@H](CCC(N)=O)C(=O)N[C@@H](CC(=O)O)C(=O)N[C@@H](Cc1ccccc1)C(=O)N[C@H](C(=O)N[C@@H](CC(N)=O)C(=O)N[C@@H](Cc1c[nH]c2ccccc12)C(=O)N[C@@H](CC(C)C)C(=O)N[C@@H](CC(C)C)C(=O)N[C@@H](C)C(=O)N[C@@H](CCC(N)=O)C(=O)N[C@@H](CCCCN)C(=O)N1CCC[C@H]1C(=O)N[C@@H](CO)C(=O)N[C@@H](CO)C(=O)NCC(=O)N[C@@H](C)C(=O)N1CCC[C@H]1C(=O)N1CCC[C@H]1C(=O)N1CCC[C@H]1C(=O)N[C@@H](CO)C(N)=O)C(C)C` [Compound 0601GIP4213], the “OGTT/GL (%)” value was −17%.
